Patent EP4567035A1, “NOVEL COMPOUND AS HYPOXIA-INDUCIBLE FACTOR 1(HIF-1) INHIBITOR OR VASCULAR ENDOTHELIAL GROWTH FACTOR (VEGF) INHIBITOR, AND PHARMACEUTICAL COMPOSITION COMPRISING SAME” (Nextgen Bioscience Co., Ltd., priority 2022, dated 2024)
Read-outs that look alike come from different tables or passages of the source.

Tests used:
VEGF = experiment: Evaluation of VEGF protein secretion level (Human VEGF ELISA) in ARPE-19 cell medium under hypoxic conditions; type: cell-based
Method in brief: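 Human ARPE-19 cells were pretreated 2 h with compound (0.1 nM–10 µM, in DMEM/F12 with 1% FBS), then held 24 h in hypoxia (1% O2, 5% CO2). Secreted VEGF in the supernatant was quantified by ELISA (A450). The value is the concentration range giving ≥50% VEGF reduction versus untreated control.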

HIF-1α = molecular target: T1, HIF-1α (Homo sapiens, UniProt Q16665); experiment: Analysis of HIF-1α protein expression (Western blot) in ARPE-19 cells under mixed hypoxic condition; type: cell-based; settings: concentration range at which HIF-1α expression is reduced by 50% vs untreated control
T1 construct: endogenous in cells; host or cells: ARPE-19 (ATCC CRL-2302)
T1 sequence (Q16665 whole entry): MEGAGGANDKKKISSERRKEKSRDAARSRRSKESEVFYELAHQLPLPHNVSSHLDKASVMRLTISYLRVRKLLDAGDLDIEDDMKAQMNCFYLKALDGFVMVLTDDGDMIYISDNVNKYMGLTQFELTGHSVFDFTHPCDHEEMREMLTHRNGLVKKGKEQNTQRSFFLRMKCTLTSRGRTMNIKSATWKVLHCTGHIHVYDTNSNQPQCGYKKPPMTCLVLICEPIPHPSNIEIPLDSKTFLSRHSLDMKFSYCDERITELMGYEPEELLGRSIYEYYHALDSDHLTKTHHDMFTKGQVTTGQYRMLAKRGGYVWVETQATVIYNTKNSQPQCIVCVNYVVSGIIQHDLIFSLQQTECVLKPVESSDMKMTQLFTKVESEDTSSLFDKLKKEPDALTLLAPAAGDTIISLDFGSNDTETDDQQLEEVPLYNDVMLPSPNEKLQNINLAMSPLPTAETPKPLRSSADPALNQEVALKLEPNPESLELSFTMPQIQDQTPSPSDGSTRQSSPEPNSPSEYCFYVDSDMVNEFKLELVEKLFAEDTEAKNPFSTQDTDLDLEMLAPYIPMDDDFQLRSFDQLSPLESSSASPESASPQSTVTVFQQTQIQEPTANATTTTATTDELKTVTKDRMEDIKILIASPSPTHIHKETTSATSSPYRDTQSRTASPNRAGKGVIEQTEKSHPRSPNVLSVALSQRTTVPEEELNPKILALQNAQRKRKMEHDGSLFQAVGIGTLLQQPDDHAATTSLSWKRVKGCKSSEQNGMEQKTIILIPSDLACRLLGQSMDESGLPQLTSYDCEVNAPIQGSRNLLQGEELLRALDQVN
Method in brief: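 ARPE-19 cells were pretreated 16 h or 2 h with compound (0.1 nM–10 µM, serum-free DMEM/F12), then held 1 h or 24 h in mixed hypoxia (1% O2 plus CoCl2). HIF-1α was quantified by Western blot against β-actin; the concentration range giving ≥50% reduction vs untreated control was reported.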

[1] = ARPE-19 cells, pretreated 2 hours, 24 hours hypoxic conditions, secreted VEGF in medium supernatant by ELISA, concentration range reducing VEGF by 50% vs untreated control, read-out: IC50 VEGF
[2] = values marked * in the table, mixed hypoxic condition (1% oxygen + CoCl2) for 24 hours, read-out: IC50 HIF-1α, Hypoxia(24h)
[3] = ARPE-19 cells, pretreated 2 hours, 24 hours hypoxic conditions, ELISA, read-out: concentration at which the secreted VEGF protein level was suppressed to less than 50%
[4] = Experimental Example 2 (HIF-1α Western blot), read-out: concentration at which the expression level of VEGF was suppressed to less than 50%
[5] = mixed hypoxic condition (1% oxygen + CoCl2) for 1 hour, read-out: IC50 HIF-1α Hypoxia (1 hour)

| SMILES | IC50 (VEGF; [1]) [nM] | DC50 (HIF-1α; [2]) [nM] | IC50 (VEGF; [3]) [nM] | IC50 (VEGF; [4]) [nM] | DC50 (HIF-1α; [5]) [nM] |
| --- | --- | --- | --- | --- | --- |
| O=C(NCc1cc(F)cc(-c2cnn(-c3cccc(F)c3)c2)c1)c1ncnc2nc(C3CCC(F)(F)C3)[nH]c12 (centres unmarked) [Example 81, 8-(3,3-Difluorocyclopentyl)-N-(3-fluoro-5-(1-(3-fluorophenyl)-1H-pyrazol-4-yl)benzyl)-7H-purine-6-carboxamide] | 100 to 1000 | < 100 |  |  |  |
| O=C(NCc1ccc(-c2cnn(-c3ccc(F)cc3)c2)c(F)c1)c1ncnc2nc(C3CCCC3)[nH]c12 [Example 109, 8-Cyclopentyl-N-(3-fluoro-4-(1-(4-fluorophenyl)-1H-pyrazol-4-yl)benzyl)-7H-purine-6-carboxamide] | > 10000 | > 10000 |  |  |  |
| O=C(NCc1cc(F)cc(-c2cnn(-c3ccc(F)cc3)c2)c1)c1ncnc2nc(C3CC4(C3)CC(F)(F)C4)[nH]c12 [Example 98, 8-(6,6-Difluorospiro[3.3]heptan-2-yl)-N-(3-fluoro-5-(1-(4-fluorophenyl)-1H-pyrazol-4-yl)benzyl)-7H-purine-6-carboxamide] | > 10000 | 1000 to 10000 |  |  |  |
| O=C(NCc1cc(F)cc(-c2cnn(-c3ccncc3)c2)c1)c1ncnc2nc(C3CCCC3)[nH]c12 [Example 12, 8-Cyclopentyl-N-(3-fluoro-5-(1-(pyridin-4-yl)-1H-pyrazol-4-yl)benzyl)-7H-purine-6-carboxamide] | < 100 |  | < 100 | < 100 | < 100 |
| O=C(NCc1cc(F)cc(-c2cnn(-c3ccc(F)cc3)c2)c1)c1nccc2nc(C3CCCC3)[nH]c12 [Example 93, 2-Cyclopentyl-N-(3-fluoro-5-(1-(4-fluorophenyl)-1H-pyrazol-4-yl)benzyl)-3H-imidazo[4,5-c]pyridine-4-carboxamide] | 100 to 1000 | < 100 |  |  |  |
| Cn1ccc(Nc2cc(F)cc(CNC(=O)c3ncnc4nc(C5CCCC5)[nH]c34)c2)c1 [Example 142, 8-Cyclopentyl-N-(3-fluoro-5-((1-methyl-1H-pyrrol-3-yl)amino)benzyl)-7H-purine-6-carboxamide] | > 10000 | 100 to 1000 |  |  |  |
| COc1ccccc1Nc1cc(F)cc(CNC(=O)c2ncnc3nc(C4CCCC4)[nH]c23)c1 [Example 33, 8-Cyclopentyl-N-(3-fluoro-5-((2-methoxyphenyl)amino)benzyl)-7H-purine-6-carboxamide] | 100 to 1000 |  |  |  | < 100 |
| Cc1nn(-c2ccc(F)cc2)cc1-c1cc(F)cc(CNC(=O)c2ncnc3nc(C4CCCC4)[nH]c23)c1 [Example 146, 8-Cyclopentyl-N-(3-fluoro-5-(1-(4-fluorophenyl)-3-methyl-1H-pyrazol-4-yl)benzyl)-7H-purine-6-carboxamide] | 100 to 1000 | 100 to 1000 |  |  |  |
| O=C(NCc1cc(F)cc(-c2cnn(-c3ccccn3)c2)c1)c1ncnc2nc(C3CCCC3)[nH]c12 [Example 30, 8-Cyclopentyl-N-(3-fluoro-5-(1-(pyridin-2-yl)-1H-pyrazol-4-yl)benzyl)-7H-purine-6-carboxamide] | 100 to 1000 |  |  |  | < 100 |
| COC(=O)C(Cc1ccc(-n2cc(-c3cc(F)cc(CNC(=O)c4ncnc5nc(C6CCCC6)[nH]c45)c3)cn2)cc1)NC(=O)c1ncnc2nc(C3CCCC3)[nH]c12 (centres unmarked) [Example 150, Methyl 2-(8-cyclopentyl-7H-purine-6-carboxamido)-3-(4-(4-(3-((8-cyclopentyl-7H-purine-6-carboxamido)methyl)-5-fluorophenyl)-1H-pyrazol-1-yl)phenyl)propanoate] | > 10000 | 100 to 1000 |  |  |  |
| O=C(NCc1cc(F)cc(-c2cnn(-c3ccc(F)nc3)c2)c1)c1ncnc2nc(C3CCCC3)[nH]c12 [Example 47, 8-Cyclopentyl-N-(3-fluoro-5-(1-(6-fluoropyridin-3-yl)-1H-pyrazol-4-yl)benzyl)-7H-purine-6-carboxamide] | < 100 | < 100 | < 100 | < 100 |  |
